≈ marks a conversion by molar mass, not a printed value.
What was measured:
P. falciparum K1 = assay: Malaria in vitro screening model (3H-hypoxanthine incorporation); assay type: cell-based, Plasmodium falciparum
Summary of the method: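 Chloroquine/pyrimethamine-resistant P. falciparum K1 in human A+ erythrocytes (0.15% parasitemia, 2.5% hematocrit) was exposed to seven 2-fold compound dilutions in hypoxanthine-free medium at 37 °C, low O2. After 48 h, 0.5 μCi ³H-hypoxanthine was added for 24 h more. IC50 was taken from sigmoidal curves as % of untreated control.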

[1] = test system: T. b. rhodesiense STIB 900; assay: African sleeping sickness in vitro screening model (Alamar Blue); assay type: cell-based, Trypanosoma brucei rhodesiense
Summary of the method: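 Bloodstream-form trypomastigotes, 8×10^3/well, were grown in supplemented MEM with 15% horse serum, without hypoxanthine, at 37 °C in 5% CO2. They were exposed for 72 h to seven 3-fold dilutions from 90 to 0.123 μg/mL. Resazurin (Alamar Blue) was added for 2 h, fluorescence read at ex 536/em 588 nm, and IC50 taken as the mean of four values.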

| Structure (SMILES) | IC50 (P. falciparum K1; Plasmodium falciparum, K1) | IC50 ([1]; Trypanosoma brucei) | P. falciparum IC50 (P. falciparum K1) | T. b. rhodesiense IC50 [1] |
| --- | --- | --- | --- | --- |
| COc1ccc(B(Oc2cccc3cccnc23)c2cccc(Cl)c2)cc1OC [Compound 27, (3-Chlorophenyl)(3,4-dimethoxyphenyl)borinic acid quinolin-8-yl ester] | 1.7 µg/mL (≈ 4.21 µM) | 0.52 µg/mL (≈ 1.29 µM) | – | – |
| CC1(C)COC(c2cccc(B(Oc3cccc4cccnc34)c3cccc(C4=NC(C)(C)CO4)c3)c2)=N1 [Compound 13, Bis[3-(4,5-dihydro-4,4-dimethyloxazol-2-yl)phenyl]borinic acid 8-hydroxyquinoline ester] | – | – | 2 µg/mL | 0.5 µg/mL |

— patent US20060014723A1, “Anti-parasitic uses of borinic acid complexes” (priority 2004, published 2006)
